≈ marks a conversion by molar mass, not a printed value. Where two headings read alike, the source gives them in different places.
Key:
[1] = tested on: K562 leukemia cells; assay: K562 cell proliferation (MTS assay); details: K562, up to 100 uM
Method: (§1) (A) K562 cells were treated with 0, 0.5, 1, 5, 10, 15, and 20 uM of T60 or 0, 0.5, 1, 5, 10, 15, 20, 50, and 100 uM of T637 and T638 for 24, 48, or 72 h. […] (B) NCI-H446 small cell lung cancer line and Hela cervical cancer line were treated with 0, 0.5, 1, 5, 10, 15, and 20 uM of T60 or 0, 0.5, 1, 5, 10, 15, 20, 50, and 100 uM of T637 and T638 for five days. Cell growth rates were measured by using Incucyte^TM. (C) K562 cells were treated with 0, 5, 10, 15, and 20 uM of T60, T637, or T638 for 48 h. Cytotoxicity was evaluated by measuring the LDH levels from the culture media. (D) K562 cells were treated with the vehicle or 10–20 µM of etoposide, T60, T637, or T638 for 4 h. Immunoblotting measured p-H2AXγ levels in cells with vinculin as a loading control.

[2] = tested on: K562 cells; assay: Cytotoxicity by LDH release; details: K562, 0-20 uM, 48 h
Method: as §1

[3] = molecular target: full-length TOP2A (Homo sapiens, UniProt P11388); assay: DNA cleavage assay, TOP2A; format: biochemical; set-up: DNA cleavage assays were performed using full-length human TOP2A and TOP2B; details: 200 µM etoposide plus 1, 100 or 200 µM compound, pHOT plasmid
Method: (A) EMSA was performed by purified full-length TOP2A or TOP2B proteins at a contraction of 300 nM with IRDay700 labeled 5ZRF DNA oligo at a concentration of 100 nM in the presence of −/+200 µM of ICRF193, T60, T637, and T638. […] Reactions were subjected to fluorescence […], which were detected by using the Multimode Microplate Reader (Infinite F500). (D) DNA cleavage assays were performed using full-length human TOP2A and TOP2B incubated with the supercoiled pHOT plasmid in the presence of 200 µM of etoposide plus 1, 100, or 200 µM of ICRF193, T60, T637, and T638. Reactions were separated on a DNA gel with ethidium bromide. All experiments were repeated three times, and one representative image was shown. Note: N, nicked DNA; L, linear DNA; and SC, supercoiled DNA.

[4] = Solubility by LC/MS/MS; format: physicochemical; details: kinetic from dmso stock
Method: Stock solutions of the tested compounds at 50 mM in dimethyl sulfoxide (DMSO) were diluted 50-fold in methanol (MeOH), Roswell Park Memorial Institute-1640 (RPMI1640), plus 5% charcoal-stripped serum (CSS) from Sigma-Aldrich (media) and phosphate-buffered saline (PBS), and vortexed at room temperature for 1 h at 800 rpm. The resulting solutions were centrifuged at 20,000× g for 5 min, and the saturated supernatants were diluted 40-fold in acetonitrile. The resultant solutions were subjected to LC/MS/MS to determine the solubility.

[5] = Crystal formation (precipitation) in cell cultures; format: physicochemical; details: up to 100 uM
Method: Both T637 and T638 have improved solubility in aqueous solution and culture media compared to T60 (Figure 1). […] When cells are growing in the culture media and treated with T60 at concentrations ≥50 uM for two days, T60 will form crystals, likely due to the altered pH values by the cells that induce T60 precipitation. […] These improvements in solubility allow higher doses of compounds to be used to treat cancer cells to reach maximum tumor suppression.

full-length TOP2A, sequence (P11388 whole entry): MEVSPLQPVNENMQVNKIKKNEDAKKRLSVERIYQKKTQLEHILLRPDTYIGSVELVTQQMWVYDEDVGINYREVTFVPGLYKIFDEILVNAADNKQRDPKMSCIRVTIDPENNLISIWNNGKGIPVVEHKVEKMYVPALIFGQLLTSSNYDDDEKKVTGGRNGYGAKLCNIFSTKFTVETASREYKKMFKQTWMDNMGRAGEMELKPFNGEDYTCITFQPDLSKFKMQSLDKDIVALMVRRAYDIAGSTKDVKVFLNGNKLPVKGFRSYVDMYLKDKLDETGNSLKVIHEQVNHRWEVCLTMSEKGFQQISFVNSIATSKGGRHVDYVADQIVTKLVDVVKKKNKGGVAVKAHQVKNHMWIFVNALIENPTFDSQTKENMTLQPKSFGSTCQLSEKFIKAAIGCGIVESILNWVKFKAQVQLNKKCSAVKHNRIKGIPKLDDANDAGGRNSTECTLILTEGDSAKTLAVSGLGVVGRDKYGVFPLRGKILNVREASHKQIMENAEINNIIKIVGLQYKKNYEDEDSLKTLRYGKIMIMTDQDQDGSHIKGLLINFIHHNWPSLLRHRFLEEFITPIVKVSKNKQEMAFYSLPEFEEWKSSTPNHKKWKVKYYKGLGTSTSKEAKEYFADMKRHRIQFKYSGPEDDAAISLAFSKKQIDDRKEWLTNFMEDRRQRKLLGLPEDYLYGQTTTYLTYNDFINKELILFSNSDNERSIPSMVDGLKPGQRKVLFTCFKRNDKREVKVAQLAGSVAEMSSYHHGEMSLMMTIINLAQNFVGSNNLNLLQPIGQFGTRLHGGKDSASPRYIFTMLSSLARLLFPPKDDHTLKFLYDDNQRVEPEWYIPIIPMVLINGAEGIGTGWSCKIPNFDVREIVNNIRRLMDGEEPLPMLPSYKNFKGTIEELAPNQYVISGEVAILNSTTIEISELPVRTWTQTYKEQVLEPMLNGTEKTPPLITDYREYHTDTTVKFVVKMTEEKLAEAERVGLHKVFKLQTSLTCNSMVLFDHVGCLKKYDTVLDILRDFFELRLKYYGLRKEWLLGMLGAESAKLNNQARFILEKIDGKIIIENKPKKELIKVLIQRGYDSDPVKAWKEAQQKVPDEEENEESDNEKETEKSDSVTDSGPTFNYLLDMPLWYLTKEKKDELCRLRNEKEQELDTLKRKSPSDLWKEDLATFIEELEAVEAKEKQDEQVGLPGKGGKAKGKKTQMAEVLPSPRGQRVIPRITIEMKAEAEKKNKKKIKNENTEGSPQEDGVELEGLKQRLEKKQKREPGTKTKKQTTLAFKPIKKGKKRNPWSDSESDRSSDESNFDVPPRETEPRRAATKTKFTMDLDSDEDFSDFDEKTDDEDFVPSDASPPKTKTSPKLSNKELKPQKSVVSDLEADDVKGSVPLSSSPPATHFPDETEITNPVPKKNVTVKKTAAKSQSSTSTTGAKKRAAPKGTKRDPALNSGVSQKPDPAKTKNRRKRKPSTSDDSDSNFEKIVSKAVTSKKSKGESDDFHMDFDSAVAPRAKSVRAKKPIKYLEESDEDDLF

In the case of `Nc1cc(Nc2ccccc2)ccc1NC(=O)c1ccc[nH]c1=S` [T638], the “Maximum cell proliferation inhibition” value ([1]; 48 h) was 100%, the “Maximum cell proliferation inhibition” value ([1]; 72 h) was 100% and the “Cytotoxicity (LDH release), in words” value [2] was “not observed”. For the same compound, the “Prevention of etoposide-induced DNA cleavage, TOP2A” value [3] was “did prevent etoposide-induced DNA cleavage”, the solubility at 1 h ([4]; RPMI1640 plus 5% charcoal-stripped serum, plasma or biological fluid, cell culture media with serum, read-out: Solubility Media/FBS) was 485 µM and the solubility at 1 h ([4]; methanol, organic solvent or mixture, methanol, read-out: Solubility Methanol) was > 1000 µM. The solubility at 1 h ([4]; phosphate-buffered saline, aqueous buffer, PBS, read-out: Solubility PBS) was 142 µM (≈ 47.8 µg/mL) and the “Crystal formation in cell cultures, in words” value [5] was “no crystal formation”.

— publication PMC8345109, “Optimization of New Catalytic Topoisomerase II Inhibitors as an Anti-Cancer Therapy” (Cancers, 2021)
